Target: T1, DNA-3-methyladenine glycosylase 1 (Escherichia coli (strain K12), UniProt P05100)
T1 sequence (P05100 whole entry): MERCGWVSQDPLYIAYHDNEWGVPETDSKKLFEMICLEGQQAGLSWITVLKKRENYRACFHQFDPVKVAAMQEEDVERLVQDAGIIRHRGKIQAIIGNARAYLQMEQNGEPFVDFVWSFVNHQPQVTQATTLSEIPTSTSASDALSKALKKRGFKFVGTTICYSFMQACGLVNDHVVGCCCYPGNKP
Assay: Inhibition of Escherichia coli DNA-3-methyladenine glycosylase 1

SMILES | IC50
Nc1ncn(Cc2ccccc2)c2ncnc1-2 [3-BENZYLADENINE] | 0.4 µM
CCCCn1cnc(N)c2ncnc1-2 [3-BUTYLADENINE] | 2.3 µM
CCn1cnc(N)c2ncnc1-2 [3-ETHYLADENINE] | 50 µM
Cn1cnc(N)c2ncnc1-2 [3-METHYLADENINE] | 1500 µM
CCCn1cnc(N)c2ncnc1-2 [3-PROPYLADENINE] | 5 µM

Source: ChEMBL document CHEMBL3046707, “Cheminformatic designing of de novo inhibitors to 3-methyl adenine DNA glycosylase I (LiTagA) from Leptospira interrogans serovar lai strain 56601” (Med Chem Res, 2013)
